Patent publication US20130331353A1, “CELL-PERMEABLE VARIANTS OF TREHALOSE AND METHODS FOR THE PROTECTION OF LIVING CELLS” (UNION COLLEGE, priority 2012, published 2013)

Test system: Jurkat cells
Assay: Survival of Jurkat cells after cryopreservation (Trypan blue staining, automated cell counter)
Assay type: cell-based, human
Conditions: Jurkat cells incubated 24 hours (50-200 μM Compound 2, with or without 200 mM Tre), slowly frozen at −80° C., thawed quickly; FIG. 2
Experimental: Fully acetylated Tre (Compound 2, FIG. 1) has been synthesized, and incubated with Jurkat cells, a human T-cell line.
In accordance with a method of the present invention, mammalian cells are incubated with a solution containing cell-permeable variants of Tre. Preferably, the incubation time is at least 24 hours, more preferably, 24 to 96 hours, and most preferably about 48 hours. The cells are then frozen, preferably to about −80° C. or colder and thawed. Suitable freezing techniques include freezing the cells slowly, using for example a cryo 1° C. freezing container (“Mr. Frosty”), and freezing the cells quickly, for example, by plunging them into liquid nitrogen. Preferably, the frozen cells are thawed quickly, but they may also be thawed slowly. The % cell survival is measured, preferably using Trypan blue staining and an automated cell counter. […]
Jurkat cells were incubated for 24 hours with each of the following solutions: 0 mM Tre, 200 mM Tre, 50 μM Compound 2, 100 μM Compound 2, 200 μM Compound 2, 50 μM Compound 2+200 mM Tre, 100 μM Compound 2+200 mM Tre, and 200 μM Compound 2+200 mM Tre. The cells were then slowly frozen at −80° C. using a cryo 1° C. freezing container (“Mr. Frosty”) and thawed quickly. % cell survival was measured using Trypan blue staining and automated cell counter.

## CC(=O)OCC1OC(OC2OC(COC(C)=O)C(OC(C)=O)C(OC(C)=O)C2OC(C)=O)C(OC(C)=O)C(OC(C)=O)C1OC(C)=O (stereo not shown) [Compound 2, fully acetylated trehalose]
  survival after freezing and thawing: improved survival
